Patent US20240058363A1 (Emyria, priority 2020, published 2024)
Marks after values point to notes of the source that are not given here.

Assays:
symptoms of stress = assay: DASS-21 stress score in patients treated with CBD only (clinical data registry); format: in vivo, human; settings: for DASS-21 Stress Score, Post 1-month follow-up Mean (Std. dev): mean days of treatment 47 (+/−23)
Description: Detailed demographic information and validated standardised questionnaires were collected as part of routine care. Written informed consent to treatment was obtained from all patients, as well as additional consent to participate in Emyria's clinical data registry, data from participating patients were anonymised, aggregated, and analysed to establish clinical efficacy.
Clinically validated tools were used to monitor patients for management of symptoms, quality of life, physical/emotional functioning, and concomitant medication usage. Patients were asked about their cannabis history and initially pre-screened for any illicit cannabis use before commencing on medicinal cannabis treatment using the Cannabis Use Disorder Identification Test (CUDIT), a urine screen was performed to confirm negative result for cannabis in their urine before they commence treatment. After they commenced on medicinal cannabis treatment they were initially treated with low doses and monitored for safety and efficacy of treatment before dose escalation is considered.
Patients are excluded from treatment with medicinal cannabis if they: were pregnant or breast-feeding; have untreated heart disease, heart failure or arrhythmia; a history of severe psychiatric disorders; active suicidal ideation; a history of dependence on cannabis; a history of dependence or abuse of psychoactive substances; detectable urinary THC before commencement of medicinal cannabis.
A potentially eligible individual who met any of the following criteria will be excluded from participation if the following criteria is met: • 1. Clinically recorded cannabis drug addiction, or cannabis use disorder including individuals with scores 8 or more on the Cannabis Use Disorder Identification Test (CUDIT). • 2. Untreated cardiovascular disease, arrhythmias (other than well controlled atrial fibrillation), or severe heart failure. • 3. History of suicide attempts or suicidal ideation. • 4. History of psychotic episode, schizophrenia or other psychotic disorders.
Patients were assessed monthly by the clinical team (doctor and nurse) and a visit schedule protocol was followed for each patient. A full medical history was conducted at the initial visit, including a detailed history of the clinical indication (including duration symptoms), comorbidities mental and cardiac health conditions, previous procedures, medications and therapies tried. Patients were reviewed as per the Schedule of Assessments (FIG. 2). Cannabinoid dose and Adverse events were also recorded at each visit after treatment began and categorised as mild (no product change indicated), moderate (product change indicated), severe (product cessation indicated) or serious (life-threatening/medical emergency).
The doctors treating patients prescribed orally-based medicinal cannabis standardised products as per approval under the Therapeutic Goods Administration (TGA) through the Special Access Scheme (SAS) Category B and Authorised Prescriber (AP) scheme. The prescribing doctor will decide which product type including THC/CBD ratio and CBD only, based on TGA guidance documents (ie for pain THC/CBD type is generally prescribed) [see https://www.tga.gov.au/medicinal-cannabis-guidance-documents], but also will factor in patient's circumstances such as driving (then CBD only prescribed).
Treatment dosing by the prescribing doctor was in accordance with Emyria (Emerald Clinics) experience, well-tolerated with minimal side effects. Doctors reviewed patients after the 14 day (2 week), see the Schedule of Assessments (FIG. 2). Following the 2-week dosing review where a doctor may increase/decrease the dosage or change product type, patients were then seen regularly (generally monthly) as per the Schedule of Assessments (FIG. 2). Patients taking CBD only products were prescribed either oil or capsules. […]

symptoms of insomnia = assay: Insomnia Severity Index (ISI) score in patients treated with CBD only; format: in vivo, human; parameters: key to Change in ISI score, Visit 1 coefficient in model with interaction terms / Change in ISI score between Visit 0 and Visit 1, by initial assessment category / Change in ISI score between Visit 0 and Visit 3 (third follow-up): change in Insomnia Severity Index (7-item self-report) score
Experimental: Insomnia may present as disturbed sleep, inability to get to sleep, inability to stay asleep and/or sleep that leaves the subject tired upon waking. The insomnia may be assessed using the Insomnia Severity Index (ISI) 7-item self-report questionnaire. […] More importantly perhaps, this global measure has been employed in number of recent clinical trials to assess the responses in insomnia to a wide variety of treatments.
Patients were assessed for inclusion/exclusion using the same screening criteria and population criteria collected for evaluation as in Example 1. Dosing regimens were the same as Example 1.
Column (1) first presents results from a pooled specification with a time specific dummy variable capturing the first follow-up visit (i.e., Visit 1) as the sole explanatory variable. […] Notice that the constant term (i.e., the intercept) reflects the average ISI score of 14.145 at baseline.
Column (2) then incorporates patient-fixed effects. Note that when including fixed effects at the person level, the constant term is dropped from the regression, as it is differenced out by the fixed effects estimator—in addition to any other (un)observable time-invariant individual characteristics which may influence ISI scores (such as personality traits or beliefs). As for our coefficient of interest, it continues to emerge as negative and statistically significant. In fact, it remains virtually unchanged from column (1) since the pooled data contains exactly two observations for each patient.
Finally, column (3) introduces interaction terms between the time dummy variable and binary indicators of starting with an ISI score in the ‘subthreshold insomnia’, ‘clinical insomnia (moderate severity)’, or ‘clinical insomnia (severe)’ category at baseline. The reference category here is determined by patients in the ‘no clinically significant insomnia’ category. Consistent with the visuals from FIG. 1, the reduction in insomnia score at the first follow-up is primarily driven by those who start in the ‘subthreshold insomnia’ category or higher at baseline.
Exploring this issue of persistence further, Table 9 presents regression-equation checks. In particular, column (1) replicates the benchmark results showing the change in […] between baseline and the first follow-up visit. Columns (2) and columns (3) then re-estimate the results between baseline and the second follow-up visit, and baseline and the third follow-up visit respectively.

[1] = average treatment window of slightly under 13 days
[2] = mean treatment horizon of 22 days
[3] = mean treatment period of 7 days

## C=C(C)C1CCC(C)=CC1c1c(O)cc(CCCCC)cc1O (stereo not shown) [cannabidiol, 2-[3-methyl-6-(1-methylethenyl)-2-cyclohexen-1-yl]-5-pentyl-1,3-benzenediol]
Symptoms of stress; All (n = 146), initial mean 21.6 (9.5), p 0.000
  DASS-21 Stress Score, Post 1-month follow-up Mean (Std. dev): 16.2 (9.5)
Symptoms of stress; Mod to extreme (n = 79), initial mean 28.8 (6.2), p 0.000
  DASS-21 Stress Score, Post 1-month follow-up Mean (Std. dev): 20.5 (9.4)
Symptoms of stress; [1]
  Decrease in stress score: −9.0
Symptoms of stress; baseline category Extremely Severe 34+ (n = 18), initial mean 38.2 (2.4), p 0.000
  DASS-21 Stress Score, Post 1-month follow-up Mean (Std. dev): 21.7 (12.2)
Symptoms of stress; baseline category Mild 15-18 (n = 27), initial mean 16.9 (1.0), p 0.038
  DASS-21 Stress Score, Post 1-month follow-up Mean (Std. dev): 14.1 (6.5)
Symptoms of stress; baseline category Moderate 19-25 (n = 27), initial mean 22.4 (1.8), p 0.002
  DASS-21 Stress Score, Post 1-month follow-up Mean (Std. dev): 17.2 (7.7)
Symptoms of stress; baseline category Normal 0-14 (n = 40), initial mean 10.6 (3.1), p 0.100
  DASS-21 Stress Score, Post 1-month follow-up Mean (Std. dev): 9.0 (6.0)
Symptoms of stress; baseline category Severe 26-33 (n = 34), initial mean 28.9 (1.9), p 0.000
  DASS-21 Stress Score, Post 1-month follow-up Mean (Std. dev): 22.6 (8.4)
Symptoms of stress; dosage amounts between 50-200 mg per day
  Change in stress score from initial visit to first follow-up versus dosage (FIG. 7): correlated with a higher value of change indicating less symptoms of anxiety, stress and/or depression
Symptoms of stress; [2]
  Fall in stress score: −5.8
Symptoms of stress; [3]
  Decline in stress score: −16.0
Symptoms of stress; patients with subthreshold and clinically significant scores at baseline
  Mean DASS-21 stress score over the first six months (FIG. 16): significant reduction over the 6-month period
Symptoms of insomnia; after 4 and 6 months (Visits 2 and 3) of CBD only treatment
  Persistence of decrease in insomnia severity: decrease in insomnia severity persists
Symptoms of insomnia; [1]
  Decrease in insomnia score: −5.0
Symptoms of insomnia; [2]
  Fall in insomnia score: −4.1
Symptoms of insomnia; [3]
  Decline in insomnia score: −7.2
Symptoms of insomnia; patient fixed effects, N 292, baseline mean 14.145, about 6 months, SE 0.854, p < 0.001
  Change in ISI score between Visit 0 and Visit 3 (third follow-up): −4.313***
Symptoms of insomnia; patient fixed effects, N 349, baseline mean 14.145, about 4 months, SE 0.581, p < 0.001
  Change in ISI score between Visit 0 and Visit 2 (second follow-up): −4.141***
Symptoms of insomnia; patients beginning in the 'no clinically significant insomnia' category
  Response of ISI score to treatment: do not exhibit any meaningful response
Symptoms of insomnia; patients starting with subthreshold, moderate and severe clinical insomnia, mean 46.9 days between visits
  Mean ISI scores by baseline ISI category, initial versus first follow-up visit (FIG. 10): significantly lower mean ISI scores in the first follow-up visit
Symptoms of insomnia; patients with subthreshold and clinically significant insomnia scores at baseline
  Average ISI scores over the first six months (FIG. 13): significant reduction over the 6-month period
Symptoms of insomnia; pooled specification, no patient fixed effects, 228 patients, baseline mean 14.145, average 46.9 days, SE 0.393, p < 0.001
  Short-term change in ISI score from baseline to first follow-up (Visit 1 coefficient): −3.254***
Symptoms of insomnia; prescribed between approximately 10 mg to 200 mg
  Change in ISI score between visits versus cannabidiol dosage: report less insomnia at the first follow-up visit
Symptoms of insomnia; reference category 'no clinically significant insomnia' at baseline, patient fixed effects, 228 patients, SE 0.646, not significant
  Change in ISI score, Visit 1 coefficient in model with interaction terms: 0.959
Symptoms of insomnia; relative to 'no clinically significant insomnia', patient fixed effects, 228 patients, SE 0.901, p < 0.001
  Change in ISI score, Visit 1 × subthreshold insomnia interaction coefficient: −3.308***
Symptoms of insomnia; relative to 'no clinically significant insomnia', patient fixed effects, 228 patients, SE 0.970, p < 0.001
  Change in ISI score, Visit 1 × clinical insomnia (moderate severity) interaction coefficient: −6.231***
Symptoms of insomnia; relative to 'no clinically significant insomnia', patient fixed effects, 228 patients, SE 1.039, p < 0.001
  Change in ISI score, Visit 1 × clinical insomnia (severe) interaction coefficient: −7.122***
Symptoms of insomnia; subsample Clinical insomnia (moderate severity), 70 patients, baseline mean 17.757, SE 0.726, p < 0.001
  Change in ISI score between Visit 0 and Visit 1, by initial assessment category: −5.271***
Symptoms of insomnia; subsample Clinical insomnia (severe), 43 patients, baseline mean 24.256, SE 0.823, p < 0.001
  Change in ISI score between Visit 0 and Visit 1, by initial assessment category: −6.163***
Symptoms of insomnia; subsample No clinically significant insomnia, 49 patients, baseline mean 3.857, SE 0.652, not significant
  Change in ISI score between Visit 0 and Visit 1, by initial assessment category: 0.959
Symptoms of insomnia; subsample Subthreshold insomnia, 66 patients, baseline mean 11.364, SE 0.631, p < 0.001
  Change in ISI score between Visit 0 and Visit 1, by initial assessment category: −2.349***
